{"source": "patent US20030065039A1", "about": "“Biologically active 1,3-bis-aromatic-prop-2-en-1-ones, 1,3-bis-aromatic-propan-1-ones, and 1,3-bis-aromatic-prop-2-yn-1-ones” (Statens Serum Institute, priority 1997, published 2003)", "key": {"[1]": {"tested_on": "Helicobacter pylori", "assay": "Helicobacter species Assay (agar plate, MIC)", "type": "cell-based", "settings": "for MIC: Helicobacter pylori, 20 strains of H. pylori, agar plate, 72 hours, read-out: MIC; for No. strains inhibited/No. strains tested: at the MIC of the same line", "description": "(§1) 20 strains of Helicobacter pylori were used in an agar plate assay. The compounds were incorporated in the agar plates at different concentrations as described in the examples and were then inoculated with different strains of Helicobacter pylori followed by incubation in a microaerophilic atmosphere at 37° C. for 72 hours. The number of colony-forming units (CFU) were counted after the incubation period. The MIC values were determined as the minimal concentration required to inhibit growth of the bacteria.\n(§2) Stock solutions were made at a concentration of 1 mg/ml by dissolving 1 mg of each compound in 100 μl DMSO (dimethylsulfoxide) followed by addition of 900 μl of heat-inactivated fetal claf serum (HFCS). These stock solutions were diluted with HFCS to make solutions having the following concentrations: 320 μg/ml, 160 μg/ml, 80 μg/ml, 40 μg/ml and 20 μg/ml. Dilution rows were made with 3 ml aliquots in vials containing the compounds in the following final test concentrations: 16 μg/ml, 8 μg/ml, 4 μg/ml, 2 μg/ml and 1 μg/ml. As control was used DMSO-HFCS containing an amount of DMSO equal to the amount of test compound in the solution with 320 μg/ml compound.\nas §1, with “Bacteria: 20” for “20”, “concentrations” for “concentrations as described in the examples”, “and then they” for “and”, “were” for “were then”, “incubation at” for “incubation in a”, “C. in” for “C. for”\nas §2, with “concentrations: 2560 μg/ml, 1280 μg/ml, 640 μg/ml,” for “concentrations:”, “160 µg/ml and” for “160 μg/ml,”, “80” for “80 μg/ml, 40 μg/ml and 20”, “concentrations: 128 μg/ml, 64 μg/ml, 32 μg/ml, 12” for “concentrations: 16”, “8” for “8 μg/ml, 4 μg/ml, 2”, “and 4” for “and 1”\nBacteria: 20 strains of Helicobacter pylori were used in an agar plate assay. The same method as described above under Experiment A was employed and MIC values were determined."}, "[2]": {"tested_on": "TNF-α", "assay": "Intracellular TNF-α in human mononuclear cells (flow cytometry)", "type": "cell-based", "settings": "for % TNFα- producing cells: DMSO 10.1", "description": "[table] Incubation condition: Cells and mitogen added at the same time and the compound solution added immediately after in polypropylene tubes and incubated at 37° C. in CO2 incubator overnight. The following day the cells and the supernatant were harvested for TNF-α determination. Incubation condition: Cells and mitogen added at the same time and the compound solution added immediately after in polypropylene tubes and incubated at 37° C. in CO2 incubator overnight. The following day the cells and the supernatant were harvested for TNF-α determination."}, "[3]": {"tested_on": "IL-2", "assay": "Intracellular cytokine staining in stimulated human mononuclear cells", "type": "cell-based", "settings": "25 μg/ml compound", "description": "(§3) Therefore, experiments were performed to examine the effect of Licochalcone A and SBC-35ma on secretion of TNF-α from the stimulated cells. These experiments included detection of the cytokines in the cell lysate by ELISA and staining of the intracellular cytokines by using monoclonal antibodies against these cytokines and cytokine receptors.\n(§4) Table 3. Effect of Licochalcone A and SBC-35ma on the presence of intracellur cytokines in the human peripheral blood mononuclear cells stimulated either with a malarial exoantigen SPAG (diluted 1:12.5) or bacterial LPS (diluted 1:1000). The cells were preincubated with 25 μg/ml of each of the compounds for 2 hours and then incubated in the presence of antigens at 37° C. overnight. The cells were permeabilized and then fixed in paraformaldehyde Cytokine specific monoclonal antibodies were used for the detection of positive cells for each cytokine. Data are presented as percentages of positive cells for each cytokine."}, "[4]": {"tested_on": "IL-1α", "assay": "Intracellular cytokine staining in stimulated human mononuclear cells", "type": "cell-based", "settings": "25 μg/ml compound, 2 hours preincubation", "description": "as §3, §4"}, "[5]": {"tested_on": "IL-4", "assay": "Intracellular cytokine staining in stimulated human mononuclear cells", "type": "cell-based", "settings": "25 μg/ml compound", "description": "as §3, §4"}, "[6]": {"tested_on": "IL-6", "assay": "Intracellular cytokine staining in stimulated human mononuclear cells", "type": "cell-based", "settings": "25 μg/ml compound", "description": "as §3, §4"}, "[7]": {"tested_on": "IL-1ra", "assay": "Intracellular cytokine staining in stimulated human mononuclear cells", "type": "cell-based", "settings": "25 μg/ml compound", "description": "as §3, §4"}, "[8]": {"tested_on": "TNF-α", "assay": "Intracellular cytokine staining in stimulated human mononuclear cells", "type": "cell-based", "settings": "25 μg/ml compound", "description": "as §3, §4"}, "[9]": {"tested_on": "IL-1β", "assay": "Intracellular cytokine staining in stimulated human mononuclear cells", "type": "cell-based", "settings": "25 μg/ml compound", "description": "as §3, §4"}, "[10]": {"assay": "Preliminary 14 days oral toxicity study in rats", "type": "in vivo", "settings": "highest dose level 1000 mg/kg/day", "description": "A preliminary 14 days oral toxicity study in rats was carried out with 6 compounds. Observations included clinical signs, body weights, food intake, haematology, clinical chemistry and macroscopic pathology."}}, "note": "Read-outs that look alike come from different tables or passages of the source.", "data": [{"compound": "COc1cc(/C=C/C(=O)c2ccccc2F)cc(OC)c1", "note": "[PH135, 2′-fluoro-3,5-dimethoxychalcone]", "values": [{"measurement": "growth of the strains of H. pylori (FIGS. 1 and 2)", "setting": "[1]", "value": "inhibited the growth of all the strains"}, {"measurement": "MIC", "setting": "[1]", "value": 32, "unit": "µg/mL"}, {"measurement": "No. strains inhibited/No. strains tested", "setting": "[1]", "value": "20/20"}, {"measurement": "% TNF-α producing cells", "setting": "[2]; 1b Experiment 1, LPS 0.5 μg/ml, compound 6.25 μg/ml, DMSO 13.8", "value": 4.1, "unit": "%"}, {"measurement": "% TNF-α producing cells", "setting": "[2]; 1b Experiment 1, LPS 0.5 μg/ml, compound 12.5 μg/ml, DMSO 13.8", "value": 2.3, "unit": "%"}, {"measurement": "% TNF-α producing cells", "setting": "[2]; 1b Experiment 1, LPS 0.5 μg/ml, compound 25.0 μg/ml, DMSO 13.8", "value": 2.2, "unit": "%"}, {"measurement": "% TNF-α producing cells", "setting": "[2]; 1b Experiment 2, LPS 1 μg/ml, compound 3.125 μg/ml, DMSO 4.0", "value": 4.3, "unit": "%"}, {"measurement": "% TNF-α producing cells", "setting": "[2]; 1b Experiment 2, LPS 1 μg/ml, compound 6.25 μg/ml, DMSO 4.0", "value": 1.7, "unit": "%"}, {"measurement": "% TNF-α producing cells", "setting": "[2]; 1b Experiment 2, LPS 1 μg/ml, compound 12.5 μg/ml, DMSO 4.0", "value": 2.0, "unit": "%"}, {"measurement": "% TNFα- producing cells", "setting": "[2]; 1b Experiment 3, LPS 1 μg/ml, compound 3.125 μg/ml", "value": 1.7, "unit": "%"}, {"measurement": "% TNFα- producing cells", "setting": "[2]; 1b Experiment 3, LPS 1 μg/ml, compound 6.25 μg/ml", "value": 1.2, "unit": "%"}, {"measurement": "% TNFα- producing cells", "setting": "[2]; 1b Experiment 3, LPS 1 μg/ml, compound 12.5 μg/ml", "value": 1.0, "unit": "%"}, {"measurement": "% TNF-α producing cells", "setting": "[2]; 1b Experiment 4, LPS 1 μg/ml, compound 3.125 μg/ml, DMSO 14.6", "value": 3.5, "unit": "%"}, {"measurement": "% TNF-α producing cells", "setting": "[2]; 1b Experiment 4, LPS 1 μg/ml, compound 6.25 μg/ml, DMSO 14.6", "value": 2.1, "unit": "%"}, {"measurement": "% TNF-α producing cells", "setting": "[2]; 1b Experiment 4, LPS 1 μg/ml, compound 12.5 μg/ml, DMSO 14.6", "value": 1.8, "unit": "%"}, {"measurement": "inhibition at 6.25 µg/mL", "setting": "[2]; Homo sapiens, 1b Experiment 1, LPS 0.5 μg/ml, compound 6.25 μg/ml, read-out: % inhibition", "value": 70, "unit": "%"}, {"measurement": "inhibition at 12.5 µg/mL", "setting": "[2]; Homo sapiens, 1b Experiment 1, LPS 0.5 μg/ml, compound 12.5 μg/ml, read-out: % inhibition", "value": 83, "unit": "%"}, {"measurement": "inhibition at 25 µg/mL", "setting": "[2]; Homo sapiens, 1b Experiment 1, LPS 0.5 μg/ml, compound 25.0 μg/ml", "value": 84, "unit": "%"}, {"measurement": "inhibition at 3.125 µg/mL", "setting": "[2]; Homo sapiens, 1b Experiment 2, LPS 1 μg/ml, compound 3.125 μg/ml", "value": 0, "unit": "%"}, {"measurement": "inhibition at 6.25 µg/mL", "setting": "[2]; Homo sapiens, 1b Experiment 2, LPS 1 μg/ml, compound 6.25 μg/ml, read-out: Intracellular % inhibition", "value": 58, "unit": "%"}, {"measurement": "inhibition at 12.5 µg/mL", "setting": "[2]; Homo sapiens, 1b Experiment 2, LPS 1 μg/ml, compound 12.5 μg/ml, read-out: Intracellular % inhibition", "value": 50, "unit": "%"}, {"measurement": "inhibition at 3.125 µg/mL", "setting": "[2]; Homo sapiens, 1b Experiment 3, LPS 1 μg/ml, compound 3.125 μg/ml", "value": 83, "unit": "%"}, {"measurement": "inhibition at 6.25 µg/mL", "setting": "[2]; Homo sapiens, 1b Experiment 3, LPS 1 μg/ml, compound 6.25 μg/ml, read-out: Intracellular % inhibition", "value": 88, "unit": "%"}, {"measurement": "inhibition at 12.5 µg/mL", "setting": "[2]; Homo sapiens, 1b Experiment 3, LPS 1 μg/ml, compound 12.5 μg/ml, read-out: Intracellular % inhibition", "value": 90, "unit": "%"}, {"measurement": "inhibition at 3.125 µg/mL", "setting": "[2]; Homo sapiens, 1b Experiment 4, LPS 1 μg/ml, compound 3.125 μg/ml", "value": 76, "unit": "%"}, {"measurement": "inhibition at 6.25 µg/mL", "setting": "[2]; Homo sapiens, 1b Experiment 4, LPS 1 μg/ml, compound 6.25 μg/ml, read-out: Intracellular % inhibition", "value": 86, "unit": "%"}, {"measurement": "inhibition at 12.5 µg/mL", "setting": "[2]; Homo sapiens, 1b Experiment 4, LPS 1 μg/ml, compound 12.5 μg/ml, read-out: Intracellular % inhibition", "value": 88, "unit": "%"}]}, {"compound": "COc1cc(/C=C/C(=O)c2cccc(F)c2)cc(OC)c1", "note": "[PH136, 3′-fluoro-3,5-dimethoxychalcone]", "values": [{"measurement": "growth of the strains of H. pylori (FIGS. 1 and 2)", "setting": "[1]", "value": "inhibited the growth of all the strains"}, {"measurement": "MIC", "setting": "[1]", "value": 32, "unit": "µg/mL"}, {"measurement": "No. strains inhibited/No. strains tested", "setting": "[1]", "value": "15/20"}]}, {"compound": "C=CCOc1ccc(C(=O)/C=C/c2cc(OC)cc(OC)c2)cc1", "note": "[SBC-35ma, 3,5-dimethoxy-4′-allyloxychalcone]", "values": [{"measurement": "percentages of positive cells for IL-2", "setting": "[3]; LPS 1:1000, LPS alone 2.0", "value": 0, "unit": "%"}, {"measurement": "percentages of positive cells for IL-2", "setting": "[3]; SPAG 1:12.5, SPAG alone 3.1", "value": 0, "unit": "%"}, {"measurement": "percentages of positive cells for IL-1α", "setting": "[4]; LPS 1:1000, LPS alone 13", "value": 0, "unit": "%"}, {"measurement": "percentages of positive cells for IL-1α", "setting": "[4]; SPAG 1:12.5, SPAG alone 11", "value": 0, "unit": "%"}, {"measurement": "percentages of positive cells for IL-4", "setting": "[5]; LPS 1:1000, LPS alone 0", "value": 0, "unit": "%"}, {"measurement": "percentages of positive cells for IL-4", "setting": "[5]; SPAG 1:12.5, SPAG alone 0", "value": 0, "unit": "%"}, {"measurement": "percentages of positive cells for IL-6", "setting": "[6]; LPS 1:1000, LPS alone 4.3", "value": 0, "unit": "%"}, {"measurement": "percentages of positive cells for IL-6", "setting": "[6]; SPAG 1:12.5, SPAG alone 5.6", "value": 0, "unit": "%"}, {"measurement": "percentages of positive cells for IL-1ra", "setting": "[7]; LPS 1:1000, LPS alone 5.1", "value": 0.78, "unit": "%"}, {"measurement": "percentages of positive cells for IL-1ra", "setting": "[7]; SPAG 1:12.5, SPAG alone 6.6", "value": 0.14, "unit": "%"}, {"measurement": "percentages of positive cells for TNF-α", "setting": "[8]; LPS 1:1000, LPS alone 0.30", "value": 0, "unit": "%"}, {"measurement": "percentages of positive cells for TNF-α", "setting": "[8]; SPAG 1:12.5, SPAG alone 0.96", "value": 0, "unit": "%"}, {"measurement": "percentages of positive cells for IL-1β", "setting": "[9]; LPS 1:1000, LPS alone 9.1", "value": 0, "unit": "%"}, {"measurement": "percentages of positive cells for IL-1β", "setting": "[9]; SPAG 1:12.5, SPAG alone 13", "value": 0, "unit": "%"}, {"measurement": "toxic effects", "setting": "[10]", "value": "No toxic effects"}]}]}
